Data taken from patent publication US9162984B2, “Small-molecule modulators of melanin expression” (University of Rochester, priority 2007, dated 2015).

Tests used:
Assay type in all cases: cell-based, mice
[1] = system: melan-a murine melanocyte cell line; assay: Melanin induction screening in melan-a melanocytes; settings: for activity for inducing melanin production: initial screening, 2.5 μM, 3 days, melanin normalized to cell count, vs DMSO
From the text: (§1) The melan-a murine melanocyte cell line was chosen for library screening. This is a non-tumorogenic line of melanocytes derived from the skin of C57Bl/6J mice (Bennett et al., Int. J. Cancer 39:414 (1987), which is hereby incorporated by reference in its entirety). These cells are ideal for phenotypic melanin screening as they proliferate quickly, are highly differentiated, and have been extensively studied (Snyder et al., Chemistry & Biology 12(4):477 (2005), which is hereby incorporated by reference in its entirety). Melanocytes were cultured in RPMI 1640 media supplemented with 10% FBS and 0.2 μM TPA, at 37° C. under 5% CO2, 95% atmosphere. For screening, 1×10^5 melan-a melanocytes were plated in 24 well tissue culture plates in a volume of 2 ml. After 18 hr incubation, 1 ml of media was removed and replaced by 1 ml media doped with small molecule, forskolin positive control, or DMSO vehicle control for 3 days. Initial screening was performed at a 2.5 μM dose (0.01% DMSO). Cells were harvested by trypsinization, washed 2× with PBS (pH 7.2), and counted by hemocytometry. Cell counts were used to assess treatment effects on cell proliferation. Melanin production was quantified by lysing cell pellets in 800 μl of 1 M NaOH for 2 hrs on ice, vigorously resuspending the lysed material by pipette, reading the absorbance at 490 nm of 200 μl aliquots of total lysate, and referencing to a standard synthetic melanin (Sigma) curve. The 75 member library was screened in triplicate. Melanin production was normalized to cell count (A490/million cells) and fold change against DMSO was calculated (FIG. 2).

[2] = system: melan-a murine melanocyte cell line; assay: Cell counts by hemocytometry to assess treatment effects on cell proliferation
From the text: as §1, with “After 18 hr incubation, 1 ml of media was removed and replaced by 1 ml media doped with small molecule, forskolin positive control, or DMSO vehicle control for 3 days. Initial screening was performed at a 2.5 μM dose (0.01% DMSO).” left out, “Cell counts were used to assess treatment effects on cell proliferation.” left out, “The 75 member library was screened in triplicate.” left out

melan-a melanocytes = assay: Melanocyte dendricity by hematoxylin staining; settings: 2.5 μM, 72 hours; untreated 36%
Protocol: Melanocytes are highly dendritic cells, and dendricity has been correlated with melanin production (Kosano et al., Biochim. Biophys. Acta 1499:11 (2000); Scott et al., J. Invest. Dermatol. 126:855 (2006), which are hereby incorporated by reference in their entirety). Dendricity was assessed by histochemical hematoxylin staining of melan-a melanocytes with and without 2.5 μM A7 treatment. 1×10^4 melan-a melanocytes were cultured onto vitrogen coated cover slips and treated with 2.5 μM A7 or vehicle control for 72 hours. Cells were fixed in 3.7% formalin/PBS, stained with hematoxylin, and imaged. Dendrites per cell were manually quantitated, and the percentage of cells with greater than 2 dendrites was calculated.

Tyrosinase [3] = assay: Tyrosinase activity assay (tritiated water from L-tyrosine-3,5-[3H]) in lysates of treated melanocytes; settings: 2.5 μM, 3 days; to a lesser degree than forskolin positive control
From the text: To further understand the mode of action for A7, tyrosinase activity was quantitated. Tyrosinase functions to hydroxylate tyrosine to dopaquinone and L-DOPA in the first step of melanin production (Ito, Pigment Cell Res. 16:230 (2003), which is hereby incorporated by reference in its entirety). As such, increased tyrosinase activity leads to increased melanin production. Tyrosinase activity can be measured by monitoring the production of tritiated water upon the hydroxylation of L-tyrosine-3,5-[^3H] to L-DOPA (Pomerantz, J. Biol. Chem. 241(1):161 (1966); Park et al., J. Biol. Chem. 268:11742 (1993), which are hereby incorporated by reference in their entirety).
Similarly to library screening, in quadruplet, melanocytes were cultured with and without 2.5 μM small molecule treatment for 3 days. Resulting cell pellets were lysed in 75 μl of 80 mM K2PO4, 1% CHAPS, 2 mM PMSF, and PICO2 protease inhibitor cocktail (CalBioChem) for 2 hours on ice. Lysates were then pelleted (10 minutes, 4° C., 10,000 rpm) and protein concentration was determined by Bradford assay. […] Aliqouts of 1.0 ml of the tritiated water containing supernatant were transferred to scintillation vials containing 5.0 ml scintillation fluid, and ^3H levels were counted. […]

Tyrosinase [4] = assay: Western blot analysis of cellular tyrosinase levels; settings: treated melanocytes

Row | SMILES | activity for inducing melanin production [1] | further results
1 | CCc1nc2ccccc2cc1C(=O)NCCc1ccc(F)cc1 [Compound A5, N-(4-fluorophenethyl)-2-ethylquinoline-3-carboxamide] | some activity | –
2 | CCc1nc2ccccc2cc1C(=O)NCCc1cccc(F)c1 [Compound A7, N-(3-fluorophenethyl)-2-ethylquinoline-3-carboxamide] | some activity | concentration giving the optimal melanogenic response ([1]; dose response, melanin quantity normalized to DMSO): 2.5 µM; ranking of melanin induction among hits ([1]; subsequent analysis of library hits): most active hit; effect on cell proliferation in dose response ([2]; concentrations up to 5 μM): no significant effect on cell proliferation; cytotoxic effects in cell culture ([2]; melanocytes in culture): does not exhibit cytotoxic effects; percentage of cells with greater than 2 dendrites (melan-a melanocytes): 69%; tyrosinase activity in melanocyte culture (Tyrosinase [3]): increases tyrosinase activity; cellular levels of tyrosinase (Tyrosinase [4]): not altered
3 | O=C(NCc1ccco1)c1ccco1 [Compound C1, N-((furan-2-yl)methyl)furan-2-carboxamide] | some activity | –
4 | CCCCNC(=O)c1ccco1 [Compound C2, N-butylfuran-2-carboxamide] | some activity | –
5 | O=C(NCCc1ccc(F)cc1)c1ccco1 [Compound C5, N-(4-fluorophenethyl)furan-2-carboxamide] | some activity | –
6 | O=C(NCCc1cccc(F)c1)c1ccco1 [Compound C7, N-(3-fluorophenethyl)furan-2-carboxamide] | some activity | –
7 | CC1(C)CCCC(C)(C)N1C(=O)c1ccco1 [Compound C10, (furan-2-yl)(2,2,6,6-tetramethylpiperidin-1-yl)methanone] | some activity | –
8 | CC1(C)CCCC(C)(C)N1C(=O)c1c(F)c(F)c(F)c(F)c1F [Compound D10, (2,2,6,6-tetramethylpiperidin-1-yl)(perfluorophenyl)methanone] | some activity | –
9 | Cc1cc(NC(=O)c2c(F)c(F)c(F)c(F)c2F)no1 [Compound D12, 2,3,4,5,6-pentafluoro-N-(5-methylisoxazol-3-yl)benzamide] | some activity | –
10 | O=C(c1ccc2c(c1)OCO2)N1CCN(c2ccc(F)cc2)CC1 [Compound E4, (benzo[d][1,3]dioxol-5-yl)(4-(4-fluorophenyl)piperazin-1-yl)methanone] | some activity | –
